In the experiment the target is LTB4-receptor (Homo sapiens, UniProt Q15722). Kind of experiment: Ki (LTB4-receptor; tests as described in WO 93/16036, pages 15 to 17). In kind it is binding.

pKi: −log10 of the molar value. Counter-ions that a name gives are not always drawn.

Sequence of LTB4-receptor (Q15722 whole entry): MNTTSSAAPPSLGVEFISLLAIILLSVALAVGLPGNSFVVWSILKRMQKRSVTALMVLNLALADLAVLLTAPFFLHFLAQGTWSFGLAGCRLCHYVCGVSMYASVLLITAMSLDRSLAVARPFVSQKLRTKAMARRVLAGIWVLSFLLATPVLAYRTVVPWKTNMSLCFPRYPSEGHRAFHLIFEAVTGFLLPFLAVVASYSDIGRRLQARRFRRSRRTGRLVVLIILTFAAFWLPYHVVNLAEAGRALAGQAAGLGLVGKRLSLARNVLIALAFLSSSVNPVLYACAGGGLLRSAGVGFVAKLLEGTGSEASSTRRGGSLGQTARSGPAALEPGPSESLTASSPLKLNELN

By pKi is commonly meant the Ki on a negative log10 scale, so that one unit is a factor of ten. In turn, `NCc1ccc(OCc2cccc(COc3ccc(C4(c5ccc(O)cc5)CCC4)cc3)c2)cc1` had a negative-log Ki (pKi) of 7.95. Take `CC(C)(c1ccccc1)c1ccc(O)c(OCc2cccc(COc3ccc(CN)cc3)c2)c1`: the pKi is 7.66. For `CC(C)(c1ccccc1)c1ccc(OCc2cccc(COc3ccc(CN)cc3)c2)cc1` the value was 7.79. Next, `NCc1ccc(OCc2cccc(COc3ccc(Cc4ccc(O)cc4)cc3)c2)cc1`: 7.41. Next, `CC(c1ccc(O)cc1)c1ccc(OCc2cccc(COc3ccc(CN)cc3)c2)cc1` (stereo not drawn): 7.67. On to `CC(CCC(=O)O)(c1ccc(O)cc1)c1ccc(OCc2cccc(COc3ccc(CN)cc3)c2)cc1` (stereo not drawn), for which the pKi was 9.30. The compound `CC(C)(c1ccc(O)cc1)c1ccc(OCc2cccc(COc3ccc(CN)cc3)c2)cc1` [4-[[3-[[4-[1-(4-Hydroxyphenyl)-1-methylethyl]phenoxy]methyl]phenyl]methoxy]-benzylamine hydrochloride] showed a pKi of 7.80. Compound `CC(C)(CN)c1ccc(OCc2cccc(COc3ccc(CN)cc3)c2)cc1` showed a negative logarithm of the Ki (pKi) of 7.17. Compared with the last compound, the pKi is 0.63 log units lower. As to `CC(C)(c1ccc(OCc2cccc(COc3ccc(CN)cc3)c2)cc1)c1ccc(O[C@@H]2O[C@H](CO)[C@@H](O)[C@H](O)[C@H]2O)cc1`, the pKi was 9.26. Consider `CC(C)(c1ccc(O)cc1)c1ccc(OCc2cccc(COc3ccc(CN)cc3)c2F)cc1`, for which the pKi was 7.55. This pKi lies 1.71 log units lower than the previous one.

For the compound `CCOC(=O)NCC(C)(C)c1ccc(OCc2cccc(COc3ccc(CN)cc3)c2)cc1`, the pKi was 8.35. Take `NCc1ccc(OCc2cccc(COc3ccc(C(c4ccc(O)cc4)(C(F)(F)F)C(F)(F)F)cc3)c2)cc1`: the pKi is 7.66. For `CC(C)(C)Oc1ccc(OCc2cccc(COc3ccc(CN)cc3)c2)cc1`, the pKi was 8.12. Against the preceding compound, the pKi is 0.46 log units higher. `NCc1ccc(OCc2cccc(COc3ccc(Sc4ccc(O)cc4)cc3)c2)cc1` showed a pKi of 7.54. The compound `CCOC(=O)C(C)(c1ccc(O)cc1)c1ccc(OCc2cccc(COc3ccc(CN)cc3)c2)cc1` (stereo not drawn) had a pKi of 8.55. Next, `CC(C)(c1ccc(O)cc1)c1ccc(C(C)(C)c2ccc(OCc3cccc(COc4ccc(CN)cc4)c3)cc2)cc1`: 7.29; `Cc1cc(C(C)(C)c2ccc(OCc3cccc(COc4ccc(CN)cc4)c3)c(C)c2)ccc1O`: 7.49. For `NCc1ccc(OCc2cccc(COc3cccc(C(=O)c4ccccc4)c3)c2)cc1` the value was 7.86; for `COC(=O)c1ccc(C(C)(C)c2ccc(OCc3cccc(COc4ccc(CN)cc4)c3)cc2)cc1`, 7.94; for `CCOC(=O)NCc1ccc(OCc2cccc(COc3ccc(C(C)(C)c4ccc(O)cc4)cc3)c2)cc1`, 6.58. The compound `NCc1ccc(OCc2cccc(COc3ccc([S+]([O-])c4ccc(O)cc4)cc3)c2)cc1` (stereo not drawn) had a negative logarithm of the Ki (pKi) of 8.80. Next, `CC(C)(c1ccccc1)c1ccc(OCc2cccc(COc3ccc(CCN)cc3)c2)cc1` [2-[4-[[3-[[4-[1-phenyl-1-methylethyl]phenoxy]methyl]phenyl]methoxy]]-ethylamine hydrochloride]: 7.51. Consider `CC(C)(c1ccc(OCc2cccc(COc3ccc(CN)cc3)c2)cc1)c1ccc(C(=O)N2CCCCC2)cc1`, for which the pKi was 9.07. Consider `CC(C)N(C(=O)c1ccc(C(C)(C)c2ccc(OCc3cccc(COc4ccc(CN)cc4)c3)cc2)cc1)C(C)C`, for which the pKi was 7.88. This pKi lies 1.19 log units lower than the previous one. Consider `CC(C)(c1ccc(O)cc1F)c1ccc(OCc2cccc(COc3ccc(CN)cc3)c2)cc1F`, for which the negative logarithm of the Ki (pKi) was 7.97. With `CC(C)(c1ccccc1)c1ccc(OCc2cccc(COc3ccc(CN)cc3)c2)c(O)c1`, the pKi is 7.75.

`NCc1ccc(OCc2cccc(COc3ccc(S(=O)(=O)c4ccc(O)cc4)cc3)c2)cc1`: the pKi was 8.72. For `CCOC(=O)CCC(C)(c1ccc(O)cc1)c1ccc(OCc2cccc(COc3ccc(CN)cc3)c2)cc1` (stereo not drawn) the value was 7.83; for `NCc1ccc(OCc2cccc(COc3ccc(Oc4ccc(O)cc4)cc3)c2)cc1`, 7.22. For `CC(C)(c1ccc(O)cc1)c1ccc(OCc2cccc(COc3ccc(CN)cc3)c2)c(O)c1`, the pKi is 8.62.
